Results on 14 compounds are retold here after publication PMC6009896, “Dual targeting of cancer-related human matrix metalloproteinases and carbonic anhydrases by chiral N-(biarylsulfonyl)-phosphonic acids” (Journal of Enzyme Inhibition and Medicinal Chemistry, 2017).

One assay has as its target Human CA II (Homo sapiens, UniProt P00918). Description: CA catalyzed CO2 hydration stopped-flow assay, CA II. Particulars: for decrease in activity on CA II compared to the standard AAZ: versus AAZ.
The target of another assay is Human CA I (Homo sapiens, UniProt P00915). Kind of assay: CA catalyzed CO2 hydration stopped-flow assay, CA I.
In the next assay the target is Human CA IX (Homo sapiens, UniProt Q16790). Description: CA catalyzed CO2 hydration stopped-flow assay, CA IX.
Another assay deals with MMP-2. On the set-up: method as in PMID 17088065, PMID 16451058, PMID 19204958. As to conditions: Table 2; existing data ref 16, 17, 24; cited from earlier work.
The target in a further assay is Human CA XII (Homo sapiens, UniProt O43570). Kind of assay: CA catalyzed CO2 hydration stopped-flow assay, CA XII.
In another assay the test system is MMP-8. On the set-up: method as in PMID 17088065, PMID 16451058, PMID 19204958. As to conditions: Table 2; existing data ref 16, 17, 24; cited from earlier work.
Another assay has as its target Human CA XIV (Homo sapiens, UniProt Q9ULX7). Description: CA catalyzed CO2 hydration stopped-flow assay, CA XIV.
Where [1] appears, read: read-out: IC50 CA II, Table 1, human CA II, stopped-flow CO2 hydration, 15 min preincubation.
Setting [2] is: read-out: IC50 CA I, Table 1, recombinant human CA I, stopped-flow CO2 hydration, 15 min preincubation.
The mark [3] stands for this setting: read-out: IC50 CA II, Table 2, recombinant human CA II, stopped-flow CO2 hydration.
Setting [4] is: read-out: IC50 CA I, Table 2, recombinant human CA I, stopped-flow CO2 hydration.
[5] abbreviates: read-out: IC50 CA IX, Table 2, recombinant human CA IX, stopped-flow CO2 hydration.
Where [6] appears, read: read-out: IC50 CA XII, Table 2, recombinant human CA XII, stopped-flow CO2 hydration.
Setting [7] is: read-out: IC50 CA XIV, Table 2, recombinant human CA XIV, stopped-flow CO2 hydration.
[8] abbreviates: IC50 CA II, Table 1, human CA II, stopped-flow CO2 hydration, 15 min preincubation.

Read-outs that look alike come from different tables or passages of the source.

Chain of Human CA I (P00915 whole entry): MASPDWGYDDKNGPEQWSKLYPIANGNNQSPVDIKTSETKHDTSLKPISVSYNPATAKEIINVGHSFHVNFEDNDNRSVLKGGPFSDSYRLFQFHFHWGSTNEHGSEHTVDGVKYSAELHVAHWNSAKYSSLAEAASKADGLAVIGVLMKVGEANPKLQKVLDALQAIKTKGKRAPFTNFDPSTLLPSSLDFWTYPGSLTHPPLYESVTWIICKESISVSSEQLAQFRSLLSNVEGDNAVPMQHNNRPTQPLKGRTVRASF
Chain of Human CA XII (O43570 25-354): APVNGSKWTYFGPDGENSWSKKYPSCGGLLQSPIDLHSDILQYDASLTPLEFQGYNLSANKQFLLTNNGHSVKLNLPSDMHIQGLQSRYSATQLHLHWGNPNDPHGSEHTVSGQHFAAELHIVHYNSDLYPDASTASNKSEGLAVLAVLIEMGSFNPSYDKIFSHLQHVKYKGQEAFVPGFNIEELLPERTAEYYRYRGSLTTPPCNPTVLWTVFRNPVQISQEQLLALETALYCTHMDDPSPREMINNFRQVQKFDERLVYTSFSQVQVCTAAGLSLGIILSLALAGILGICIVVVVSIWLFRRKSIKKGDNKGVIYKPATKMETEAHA
Chain of Human CA XIV (Q9ULX7 16-337): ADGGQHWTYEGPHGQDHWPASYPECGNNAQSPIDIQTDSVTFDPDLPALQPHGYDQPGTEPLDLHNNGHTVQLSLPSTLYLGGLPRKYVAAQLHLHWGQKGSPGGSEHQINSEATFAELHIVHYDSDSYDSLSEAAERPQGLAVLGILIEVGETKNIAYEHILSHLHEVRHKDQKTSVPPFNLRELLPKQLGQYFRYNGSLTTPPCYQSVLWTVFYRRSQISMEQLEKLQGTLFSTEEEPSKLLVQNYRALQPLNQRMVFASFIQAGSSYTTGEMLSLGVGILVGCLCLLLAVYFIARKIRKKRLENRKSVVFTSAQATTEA
Method for Human CA II: (§1) An applied photophysics stopped-flow instrument has been used for assaying the CA catalyzed CO2 hydration activity. […] The CO2 concentrations ranged from 1.7 to 17 mM for the determination of the kinetic parameters and inhibition constants. […] The uncatalyzed rates were determined in the same manner and subtracted from the total observed rates. Stock solutions of inhibitor (10–50 mM) were prepared in distilled-deionized water and dilutions up to 0.1 nM were done thereafter with the assay buffer.
Method for Human CA IX: as §1
Method for Human CA XII: as §1
Method for Human CA XIV: as §1

On to `O=P(O)(O)CS(=O)(=O)c1ccc(-c2ccccc2)cc1` [Compound 1], for which the half-inhibitory concentration (IC50) on Human CA II (setting [1]) and at Human CA I (setting [2]) was over 10 µM in each case.
On to `O=C(CS(=O)(=O)c1ccc(-c2ccccc2)cc1)NO` [Compound 3], for which the “decrease in activity on CA II compared to the standard AAZ” value (from here on “decrease in activity on CA II”) at Human CA II was about 100 fold. Also, the 50% inhibitory concentration (IC50) on Human CA II (setting [1]) came to 3.66 µM; on Human CA II (setting [3]), 3.66 µM; on Human CA I (read-out: IC50 CA I, rounded value) it was 8.3 µM; on Human CA I (setting [2]), 8.3 µM; on Human CA I (setting [4]), 8.3 µM; at Human CA IX (read-out: IC50 CA IX, rounded value), 0.5 µM. In addition, the half-maximal inhibitory concentration (IC50) on Human CA IX (setting [5]) was 0.527 µM; with MMP-2, 0.006 µM; at Human CA XII (setting [6]), 8.86 µM; in the assay on MMP-8, 0.024 µM; on Human CA XIV (setting [7]) it was 8.53 µM.
For `COc1ccc(-c2ccc(S(=O)(=O)CP(=O)(O)O)cc2)cc1` [Compound 4], the 50% inhibitory concentration (IC50) on Human CA II (setting [1]) and on Human CA I (setting [2]) was over 10 µM each time.
For `O=P(O)(O)CS(=O)(=O)c1ccc(-c2cccc(Cl)c2)cc1` [Compound 6], the IC50 on Human CA II (setting [1]) and on Human CA I (setting [2]) was over 10 µM in each case.
Turning to `COc1ccc(-c2ccc(S(=O)(=O)N[C@@H](C(C)C)P(=O)(O)O)cc2)cc1` [(R)-15, (R)-N-(4′-methoxybiphenylsulfonyl)-phosphovaline], at Human CA II, the “decrease in activity on CA II” value is listed as about 100 fold. The IC50 on Human CA II (setting [1]) was 3.78 µM; on Human CA II (setting [3]) it was 3.78 µM; on Human CA I (setting [2]), over 10 µM; on Human CA I (setting [4]), over 10 µM; on Human CA IX (setting [5]), 0.084 µM; in the assay with MMP-2, 0.0015 µM. The half-maximal inhibitory concentration (IC50) on Human CA XII (setting [6]) was 6.22 µM; in the assay on MMP-8, 0.0014 µM; at Human CA XIV (setting [7]), 1.52 µM.
In the case of `O=P(O)(O)CS(=O)(=O)c1ccc(-c2ccc(C(F)(F)F)cc2)cc1` [Compound 5], the 50% inhibitory concentration (IC50) on Human CA II (setting [1]) and on Human CA I (setting [2]) was over 10 µM in each case.
Regarding `O=C(O)CS(=O)(=O)c1ccc(-c2ccccc2)cc1` [Compound 2], at Human CA II, the “inhibitory activity on CA II (in words)” value was “completely devoid of activity”. In addition, the half-inhibitory concentration (IC50) at Human CA II (setting [1]) and at Human CA I (setting [2]) was over 10 µM each time. The “inhibitory activity on CA I (in words)” value at Human CA I is “completely devoid of activity”.
In the case of `Cc1cccc(-c2ccc(S(=O)(=O)N[C@@H](C(C)C)P(=O)(O)O)cc2)c1` [(R)-13, (R)-1-[3′-methyl-biphenyl-4-sulfonylamino]-2-methylpropyl phosphonic acid], the IC50 at Human CA II (setting [8]) and against Human CA I was over 10 µM throughout.
As for `CC(C)CC(P(=O)(O)O)S(=O)(=O)c1ccc(-c2ccccc2)cc1` (racemic) [Compound 9], the IC50 at Human CA II (setting [1]) and on Human CA I (setting [2]) was over 10 µM each time.
In the case of `CC(C)(P(=O)(O)O)S(=O)(=O)c1ccc(-c2ccccc2)cc1` [Compound 11], the IC50 at Human CA II (setting [1]) and on Human CA I (setting [2]) was over 10 µM throughout.
Consider `O=P(O)(O)CS(=O)(=O)c1ccc(-c2cccs2)cc1` [Compound 7], for which the 50% inhibitory concentration (IC50) at Human CA II (setting [1]) and on Human CA I (setting [2]) was over 10 µM throughout.
Regarding `COc1ccc(Oc2ccc(S(=O)(=O)CP(=O)(O)O)cc2)cc1` [Compound 8], the IC50 at Human CA II (setting [1]) and at Human CA I (setting [2]) was over 10 µM each time.
As for `Cc1ccc(-c2ccc(S(=O)(=O)N[C@@H](C(C)C)P(=O)(O)O)cc2)cc1` [(R)-12, (R)-N-(4′-methylbiphenylsulfonyl)-phosphovaline], the “decrease in activity on CA II” value at Human CA II is on record as about 100 fold. Further, the IC50 is 4.14 µM at Human CA II (setting [1]); 4.14 µM on Human CA II (read-out: IC50 CA II, Table 2, CA II from Sigma); over 10 µM at Human CA I (setting [2]); over 10 µM on Human CA I (setting [4]); 0.093 µM at Human CA IX (setting [5]); 0.0023 µM in the assay on MMP-2. Moreover, the half-inhibitory concentration (IC50) on Human CA XII (read-out: IC50 CA XII, rounded value) is 0.47 µM; on Human CA XII (setting [6]) it was 0.475 µM; in the assay on MMP-8 it was 0.0004 µM; on Human CA XIV (read-out: IC50 CA XIV, rounded value), 0.37 µM; at Human CA XIV (setting [7]) it was 0.369 µM. For the same compound, the “decrease in potency on CA XII in comparison to CA IX” value at Human CA XII (CA XII versus CA IX) came to 4 fold. Moreover, the “decrease in potency on CA XIV in comparison to CA IX” value on Human CA XIV (CA XIV versus CA IX) worked out at 4 fold.
On to `COc1ccc(-c2ccc(S(=O)(=O)C(Cc3ccccc3)P(=O)(O)O)cc2)cc1` (stereo not drawn) [Compound 10, 1–(4′-methoxybiphenyl-4-sulfonyl)-2-phenylethylphosphonic acid], for which the IC50 was over 10 µM at Human CA II (setting [8]); 21.1 µM on Human CA II (IC50 CA II, Table 2, recombinant human CA II, stopped-flow CO2 hydration); over 10 µM at Human CA I; over 10 µM on Human CA I (setting [4]); 0.837 µM at Human CA IX; 8.2 µM in the assay on MMP-2. Also, the IC50 turned out to be 8.48 µM against Human CA XII and 7.47 µM against Human CA XIV.
